In patent publication US20050238672A1, “Antifungal drug delivery” (priority 2004, published 2005):

Columns and labels:
[1] = system: T. rubrum, T. mentagrophytes; assay: clinical study, topical application, onychomycosis; assay type: in vivo, human; conditions: after discontinuation of therapy
Excerpt: A total of 10 patients, identified clinically and mycologically (T. rubrum, T. mentagrophytes) were all mycologically cured. Within two weeks of applications all patients with intractable, longstanding (of up to 15 years or more) moccasin distribution fungal dermatomycosis were clinically and mycologically cured. After 2 months of application all patients with severe onychomycosis, also of very long standing duration, appeared mycologically cured (negative cultures). […] Some nails continued to display dystrophic changes commensurate with the slow rate of nail growth and replacement. This persistent and possible prophylactic response is attributed to the unique solubility characteristics of the compounds in question and to the ability of the selected solvents to deliver the drug to the subungual or keratin rich regions where the fungi accumulate, and to persist at such sites in a microcrystalline form after precipitation.
Compositions according to the present invention can be applied by conventional methods, including the use of a small brush with a nail-lacquer bottle, a roll-on applicator, or by a squeeze bottle with a small opening. In the results cited above, a small brush with a nail-lacquer bottle was used.

[2] = solubility of terbinafine in benzyl alcohol; assay type: physicochemical; conditions: room temperature, with stirring
Method: In a preferred embodiment, the antifungal agent, terbinafine (an allylamine compound) used to treat infections of the nails and of the sub and peri-plantar regions of the foot (moccasin distribution) is dissolved in benzyl alcohol at room temperature with the aid of stirring. […] Two grams of terbinafine are therefore dissolved in 5 ml of benzyl alcohol. To this solution 85 ml of ethyl alcohol anhydrous and 10ml of distilled water are added. The final concentration of the active compound terbinafine, is 2% and that of the preferred carrier, benzyl alcohol 5%.

- solubility in benzyl alcohol [2]: greater than 40 % w/vol
Structure (SMILES): CN(C/C=C/C#CC(C)(C)C)Cc1cccc2ccccc12 [terbinafine]
- recurrence upon discontinuation of therapy [1]: lack of any recurrence
